pIC50: −log10 of the molar value.
system: CWR22RV1 cells; assay: Inhibition of proliferation of CWR22RV1 cells (CCK-8); type: cell-based, human; conditions: 6 days culture, read-out: IC50 against CWR22RV1 cells
Procedure: 1) CWR22RV1 cells were subcultured in cell culture medium, and the cells in good growth condition were seeded in a 96-well plate, 80 μL for each well, and the cell number in each well was 1500. The plate was incubated overnight in a 37° C., 5% CO2 cell incubator. 2) The drug was prepared as 30 mM stock solution with dimethyl sulfoxide (DMSO). Prior to use, the stock solution was diluted 3 times with DMSO, and then further diluted as 3-fold gradient to obtain 9 concentration gradients. Then, each concentration of compound was diluted 200 times with the culture solution (ensuring that the DMSO concentration in the culture system was 0.1%), and two replicate wells were set for each concentration. 20 μL of diluted compound solution was added to the cell culture well (with final concentrations of 10 μM, 3.3 μM. 1.1 μM . . . ), and the plate was gently shaken to mix. In addition, 3 negative control wells containing only cells and 3 blank control wells containing only culture medium were included (6 wells were each added 20 μL DMSO diluted 200 times with culture medium). 2. Result detection: (1) After culturing for 6 days, 10 μL CCK-8 was added to each well, and the plate was continually cultured in a 37° C., 5% CO2 cell incubator for 2.5 h. (2) The absorbance (OD value) was detected at 450 nm using a multifunctional microplate reader. (3) The data were analyzed by Dose-response-inhibition equation in the software GraphPad Prism6, and the IC50 value was obtained.

Molecule | pIC50
1-(2′,4′-dioxo-3′-(2-oxo-2-((S)-2-phenylpyrrolidin-1-yl)ethyl)-2,3-dihydrospiro[cyclopropane-indene-1,5′-oxazolidine]-5-yl)-3-methylurea [Example 325] | < 5.70
CNC(=O)Nc1ccc2c(c1)CC[C@@]21OC(=O)N(CC(=O)N2C(c3ccc(F)c(Cl)c3)CC[C@@H]2C)C1=O (stereo in doubt) [Example 369, 1-((R)-3′-(2-((2R,5S)-2-(3-chloro-4-fluorophenyl)-5-methylpyrrolidin-1-yl)-2-oxoethyl)-2′,4′-dioxo-2,3-dihydrospiro[indene-1,5′-oxazolidine]-5-yl)-3-methylurea] | < 5.70
CNC(=O)Nc1ccc2c(c1)CC[C@@]21OC(=O)N(CC(=O)N2C[C@@H]3C[C@H]2CN3C(=O)OC(C)(C)C)C1=O [Example 10, (1S,4S)-5-(2-((R)-5-(3-methylureido)-2′,4′-dioxo-2,3-dihydrospiro[indene-1,5′-oxazolidine]t-butyl-3′-yl)acetyl)-2,5-diazabicyclo[2.2.1]heptane-2-carboxylic Acid t-Butyl Ester] | < 5.70
CNC(=O)Nc1ccc2c(c1)CC[C@@]21OC(=O)N(CC(=O)N2CCCC2c2ccccc2C)C1=O (stereo partly drawn) [Example 11, 1-((1R)-2′,4′-dioxo-3′-(2-oxo-2-(2-(o-tolyl)pyrrolidin-1-yl)ethyl)-2,3-dihydrospiro[indene-1,5′-oxazolidine]-5-yl)-3-methylurea] | 5.70 to 6.30
CNC(=O)Nc1ccc2c(c1)CC[C@@]21OC(=O)N(CC(=O)N2C(c3ccc(F)cc3)CCC2(C)C)C1=O (stereo partly drawn) [Example 39, 1-((R)-3′-(2-(5-(4-fluorophenyl)-2,2-dimethylpyrrolidin-1-yl)-2-oxoethyl)-2′,4′-dioxo-2,3-dihydrospiro[indene-1,5′-oxazolidine]-5-yl)-3-methylurea] | 5.70 to 6.30

same assay, conditions: Homo sapiens, CWR22Rv1, 144 h, 6 days culture, read-out: IC50 against CWR22RV1 cells

Molecule | pIC50
CNC(=O)Nc1ccc2c(c1)CC[C@@]21OC(=O)N(CC(=O)N2C(c3ccc(F)cc3)CC[C@@H]2CO)C1=O (mixture of isomers) [Example 360, 1-((R)-3′-(2-((R)-2-(4-fluorophenyl)-5-(hydroxymethyl)pyrrolidin-1-yl)-2-oxoethyl)-2′,4′-dioxo-2,3-dihydrospiro[indene-1,5′-oxazolidine]-5-yl)-3-methylurea] | < 5.70
CNC(=O)Nc1ccc2c(c1)CC[C@@]21OC(=O)N(CC(=O)N2CCCC2c2ccccc2OC)C1=O (single isomer, unassigned) [Example 338] | < 5.70
CNC(=O)Nc1ccc2c(c1)CC[C@]21OC(=O)N(CC(=O)N2CCCC[C@@H]2c2ccccc2)C1=O [Example 1] | < 5.70
CNC(=O)Nc1ccc2c(c1)CC[C@@]21OC(=O)N(CC(=O)N2CCCC[C@@H]2c2ccccc2)C1=O [Example 2] | < 5.70
CNC(=O)Nc1ccc2c(c1)CC[C@@]21OC(=O)N(CC(=O)N2C3CCCC2CC3)C1=O [Example 3] | < 5.70
CNC(=O)Nc1ccc2c(c1)CC[C@]21OC(=O)N(CC(=O)N2CCCC[C@H]2c2ccccc2)C1=O [Example 4] | < 5.70
CNC(=O)Nc1ccc2c(c1)CC[C@@]21OC(=O)N(CC(=O)N2CCCC[C@H]2c2ccccc2)C1=O [Example 5, 1-((R)-2′,4′-dioxo-3′-(2-oxo-2-((S)-2-phenylpiperidin-1-yl)ethyl)-2,3-dihydrospiro[indene-1,5-oxazolidine]-5-yl)-3-methylurea] | < 5.70
CNC(=O)Nc1ccc2c(c1)CC[C@@]21OC(=O)N(CC(=O)N2C3CCC2CC3)C1=O [Example 7, 1-((R)-3′-(2-((1S,4S)-7-azabicyclo[2.2.1]heptan-7-yl)-2-oxoethyl)-2′,4′-dioxo-2,3-dihydrospiro[indene-1,5′-oxazolidine]-5-yl)-3-methylurea] | < 5.70
CNC(=O)Nc1ccc2c(c1)CC[C@@]21OC(=O)N(CC(=O)N2CCC[C@H]2c2ccc(F)cc2C)C1=O [Example 8, 1-((R)-3′-(2-((S)-2-(4-fluoro-2-methylphenyl)pyrrolidin-1-yl)-2-oxoethyl)-2′,4′-dioxo-2,3-dihydrospiro[indene-1,5′-oxazolidine]-5-yl)-3-methylurea] | 5.70 to 6.30
CNC(=O)Nc1ccc2c(c1)CC[C@@]21OC(=O)N(CC(=O)N2CCCC3CCCCC32)C1=O (stereo partly drawn) [Example 12, 1-methyl-3-((1R)-3′-(2-(octahydroquinolin-1-(2H)-yl)-2-oxoethyl)-2′,4′-dioxo-2,3-dihydrospiro[indene-1,5′-oxazolidine]-5-yl)urea] | < 5.70
CNC(=O)Nc1ccc2c(c1)CC[C@@]21OC(=O)N(CC(=O)N2CCCC2c2ccccc2OC(F)(F)F)C1=O (stereo partly drawn) [Example 13, 1-((1R)-2′,4′-dioxo-3′-(2-oxo-2-(2-(2-(trifluoromethoxyl)phenyl)pyrrolidin-1-yl)ethyl)-2,3-dihydrospiro[indene-1,5′-oxazolidine]-5-yl)-3-methylurea] | < 5.70
CNC(=O)Nc1ccc2c(c1)CC[C@@]21OC(=O)N(CC(=O)N2C(c3ccc(F)cc3)CC[C@@H]2C)C1=O (stereo partly drawn) [Example 15, 1-((R)-3′-(2-((5S)-2-(4-fluorophenyl)-5-methylpyrrolidin-1-yl)-2-oxoethyl)-2′,4′-dioxo2,3-dihydrospiro[indene-1,5′-oxazolidine]-5-yl)-3-methylurea] | ≥ 6.30
CNC(=O)Nc1ccc2c(c1)CCC21OC(=O)N(CC(=O)N2CC3CCC2C3)C1=O (stereo not drawn) [Example 16, 1-(3′-(2-(2-azabicyclo[2.2.1]heptan-2-yl)-2-oxoethyl)-2′,4′-dioxo-2,3-dihydrospiro[indene-1,5′-oxazolidine]-5-yl)-3-methylurea] | < 5.70
CNC(=O)Nc1ccc2c(c1)CC[C@@]21OC(=O)N(CC(=O)N2C(c3ccc(F)cc3)CC[C@H]2C)C1=O (stereo partly drawn) [Example 18, 1-((R)-3′-(2-((5R)-2-(4-fluorophenyl)-5-methylpyrrolidin-1-yl)-2-oxoethyl)-2′,4′-dioxo-2,3-dihydrospiro[indene-1,5′-oxazolidine]-5-yl)-3-methylurea] | ≥ 6.30
CNC(=O)Nc1ccc2c(c1)C1(CC1)CC21OC(=O)N(CC(=O)N2C(C)CCC2c2ccc(F)cc2)C1=O (stereo not drawn) [Example 97, 1-(3′-(2-(2-(4-fluorophenyl)-5-methylpyrrolidin-1-yl)-2-oxoethyl)-2′,4′-dioxo-2,3-dihydrospiro[cyclopropane-1,1′-indene-1,5′-oxazolidine]-5-yl)-3-methylurea] | < 5.70
CNC(=O)Nc1ccc2c(c1)CC[C@@]21OC(=O)N(CC(=O)N[C@]23C[C@H]4C[C@H](C[C@H](C4)C2)C3)C1=O [Example 99] | < 5.70
CNC(=O)Nc1ccc2c(c1)CC[C@@]21OC(=O)N(CC(=O)N2CCc3ccccc3C2)C1=O [Example 100, (R)-1-(3′-(2-(3,4-dihydroisoquinolin-2(1H)-yl)-2-oxoethyl)-2′,4′-dioxo-2,3-dihydrospiro[indene 1,5′-oxazolidine]-5-yl)-3-methylurea] | < 5.70
CNC(=O)Nc1ccc2c(c1)CC[C@@]21OC(=O)N(CC(=O)N2C[C@@H]3C[C@@H]2CO3)C1=O [Example 103] | < 5.70
CNC(=O)Nc1ccc2c(c1)CC[C@@]21OC(=O)N(CC(=O)NC2C(C)(C)C(O)C2(C)C)C1=O (stereo partly drawn) [Example 105, (R)—N-(3-hydroxyl-2,2,4,4-tetramethylcyclobutyl)-2-(5-(3-Methylureido)-2′,4′-dioxo-2,3-dihydrospiro[indene-1,5′-oxazole]-3′-yl)acetamide] | < 5.70
CNC(=O)Nc1ccc2c(c1)CC[C@@]21OC(=O)N(CC(=O)N2CCC2c2ccccc2)C1=O (stereo partly drawn) [Example 106] | < 5.70

same assay, conditions: Homo sapiens, CWR22Rv1, 144 h, 6 days culture, read-out: IC50 against CWR22RV1 cells (text)

Molecule | pIC50
CNC(=O)Nc1ccc2c(c1)CC[C@@]21OC(=O)N(CC(=O)N2C(c3ccc(F)cc3)CC[C@@H]2C)C1=O (stereo partly drawn) [Example 15, 1-((R)-3′-(2-((5S)-2-(4-fluorophenyl)-5-methylpyrrolidin-1-yl)-2-oxoethyl)-2′,4′-dioxo2,3-dihydrospiro[indene-1,5′-oxazolidine]-5-yl)-3-methylurea] | ≥ 6.30
CNC(=O)Nc1ccc2c(c1)CC[C@@]21OC(=O)N(CC(=O)N2C(c3ccc(F)cc3)CC[C@H]2C)C1=O (stereo partly drawn) [Example 18, 1-((R)-3′-(2-((5R)-2-(4-fluorophenyl)-5-methylpyrrolidin-1-yl)-2-oxoethyl)-2′,4′-dioxo-2,3-dihydrospiro[indene-1,5′-oxazolidine]-5-yl)-3-methylurea] | ≥ 6.30

Source: US20220087996A1, “Histone acetylase p300 inhibitor and use thereof” (HINOVA PHARMACEUTICALS INC., priority 2018, published 2022)
